In ChEMBL document CHEMBL1201862, “PubChem BioAssay data set” (2004):
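Where inhibition never reached the appropriate level, the endpoint shown equals the highest concentration tested. Otherwise, values were interpolated linearly from a five-concentration, 48-hour dose response in 96-well plates. Here, GI50 denotes the concentration required for 50% inhibition of growth.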 Activity calls are given as the source filed them. No stated cut-off is given here; in the data, active = GI50 up to about 1.1 µM and inactive = higher.

Experiments:
Test in all cases: NCI-60 cell line screen, 48 h
[1] = system: XF498
[2] = system: SNB-78
[3] = system: DMS-273
[4] = system: OVCAR-3
[5] = system: SF-539
[6] = system: HOP-92
[7] = system: NCI-H522
[8] = system: A498
[9] = system: A549
[10] = system: Malme-3M
[11] = system: M19-MEL
[12] = system: ACHN
[13] = system: M14
[14] = system: CAKI-1
[15] = system: DMS-114
[16] = system: NCI/ADR-RES

Measured: GI50

c1ccc2c(NCCCCCCCCNc3cccc4ccccc34)cccc2c1
inactive: [1] 78.9 µM | [2] 46.8 µM | [3] 29.6 µM | [4] 34 µM | [5] 27 µM | [6] 18.2 µM | [7] 16.4 µM | [8] 44.1 µM | [9] > 100 µM | [10] 22 µM | [11] > 10 µM | [12] 30 µM | [13] 19.9 µM | [14] 19.7 µM | [15] 25.6 µM

Cc1[nH]c(=O)[nH]c(=O)c1/C=C/C(=O)NC(CO)CC(C)C (stereo not given)
inactive: [1] 60 µM | [2] 373 µM | [3] > 375 µM | [4] 164 µM | [5] > 375 µM | [6] 17.5 µM | [7] 114 µM | [16] > 375 µM | [8] > 375 µM | [9] 349 µM | [10] 233 µM | [11] 322 µM | [14] 146 µM | [15] 260 µM

O=C(OCCO)C1CC2CC1C1(C2)OCCO1 (stereo not given)
inactive: [1] > 100 µM | [2] > 100 µM | [3] > 100 µM | [4] > 100 µM | [5] > 100 µM | [6] > 100 µM | [7] > 100 µM | [8] > 100 µM | [9] > 100 µM | [10] > 100 µM | [11] > 100 µM | [12] > 100 µM | [13] > 100 µM | [14] > 100 µM | [15] > 100 µM

CSCC[C@@H](NC(=O)[C@H](CC(C)C)NC(=O)C(Cc1cnc[nH]1)NC(=O)CNC(=O)[C@@H](NC(=O)[C@H](C)NC(=O)[C@H](Cc1cn(C=O)c2ccccc12)NC(=O)[C@H](CCC(N)=O)NC(=O)[C@@H](N)CC(N)=O)C(C)C)C(N)=O (stereo not given in full)
inactive: [1] > 100 µM | [2] > 100 µM | [3] > 100 µM | [4] > 100 µM | [5] > 100 µM | [7] > 100 µM | [16] > 100 µM | [8] > 100 µM | [9] > 100 µM | [10] > 100 µM | [11] > 100 µM | [15] > 100 µM

NCCCCCC(CCN)SCC1OC(n2cnc3c(N)ncnc32)C(O)C1O (stereo not given)
inactive: [1] > 15 µM | [2] > 1020 µM | [3] 369 µM | [4] > 1500 µM | [5] 483 µM | [6] > 618 µM | [7] 822 µM | [16] > 948 µM | [8] > 1500 µM | [9] > 1500 µM | [10] > 1280 µM | [11] > 843 µM | [14] 411 µM | [15] 339 µM
